# Data published in ChEMBL document CHEMBL1201862, “PubChem BioAssay data set” (2004).
# The source made the active and inactive calls.
# Tests used:
# [1] = viability of HCT116 lacking mutant beta-catenin – cell-based, human colon tumor, dose response (AID 1045); assay type: functional;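 further: HCT116 colon tumor cells with beta catenin knocked out; cells exposed to compound for 60 hours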
# [2] = microbe, parasite or virus in culture; assay type: functional; settings: Mycobacterium tuberculosis
# [3] = viability of PTEN-deleted HCT116 cells – cell-based, HCT116 PTEN knockout, dose response (AID 1047); assay type: functional;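 further: HCT116 colon tumor cells with PTEN knocked out; cells exposed to compound for 60 hours before readout; potency for loss of cell viability measured by luminescence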
# BJ = assay: growth inhibition of engineered Ras-driven BJ cells – cell-based, alamar blue fluorescence, cherrypicked samples, dose response (AID 2631); assay type: functional; settings: Homo sapiens;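 further: confirmatory dose-response assay in RAS-dependent BJ fibroblasts engineered with TERT, LT and ST, with cytotoxicity read by fluorescence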
# INS1 = assay: INS-1E survival protection against cytokine death – cell-based, luminescence, retest, dose response (AID 449756); assay type: functional; settings: Rattus norvegicus;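 further: cell death triggered by IL-1 beta plus TNF-alpha plus IFN-gamma mixture; protective hits raise ATP signal compared with cytokine alone wells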
# Protein RecA = target: T1, Protein RecA (Mycobacterium tuberculosis, UniProt P9WHJ3); assay: Fluorescence Cell-Free Homogeneous Dose Retest to Identify Inhibitors of RecA-Intein Splicing Activity. [Related pubchem assays (depositor defined):AID2097, AID2223, AID489010, AID492950]; assay type: functional
# T1 sequence (P9WHJ3 whole entry): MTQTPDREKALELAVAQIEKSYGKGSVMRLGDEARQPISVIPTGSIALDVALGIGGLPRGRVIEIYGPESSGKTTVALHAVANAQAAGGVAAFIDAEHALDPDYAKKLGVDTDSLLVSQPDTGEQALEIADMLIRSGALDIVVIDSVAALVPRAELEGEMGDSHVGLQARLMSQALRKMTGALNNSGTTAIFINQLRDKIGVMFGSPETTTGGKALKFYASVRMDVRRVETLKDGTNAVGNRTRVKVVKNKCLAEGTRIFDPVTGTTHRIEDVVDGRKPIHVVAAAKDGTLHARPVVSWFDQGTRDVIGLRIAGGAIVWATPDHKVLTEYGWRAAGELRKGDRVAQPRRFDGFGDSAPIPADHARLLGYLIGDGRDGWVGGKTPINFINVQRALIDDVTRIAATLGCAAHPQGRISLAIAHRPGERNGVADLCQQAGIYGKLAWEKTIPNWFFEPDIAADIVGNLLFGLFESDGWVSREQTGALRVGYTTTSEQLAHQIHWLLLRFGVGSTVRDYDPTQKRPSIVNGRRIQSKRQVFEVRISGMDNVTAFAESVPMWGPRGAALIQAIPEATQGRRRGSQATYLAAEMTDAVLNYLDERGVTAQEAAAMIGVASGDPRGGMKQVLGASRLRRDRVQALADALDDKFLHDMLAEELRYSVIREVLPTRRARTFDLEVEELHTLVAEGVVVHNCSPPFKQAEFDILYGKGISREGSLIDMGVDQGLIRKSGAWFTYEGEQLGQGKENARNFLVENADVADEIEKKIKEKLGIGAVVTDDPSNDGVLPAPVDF
# [4] = Fluorescence-based cell-based high throughput dose response assay for inhibitors of the interaction of nucleotide-binding oligomerization domain containing 2 (NOD2) and the receptor-interacting serine-threonine kinase 2 (RIPK2).; assay type: functional; settings: Homo sapiens
# cells [5] = assay type: functional, cell-based
# [6] = reduction of Shn3 3'UTR-driven luciferase in osteoblasts – cell-based, Clone20 osteoblasts, firefly luciferase, cherry-picked, dose response (AID 624132); assay type: functional;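 further: firefly luciferase luminescence from reporter carrying the Shn3 3'UTR in osteoblasts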
# cells [7] = assay type: functional, cell-based; remark: listed apart in the source
# [8] = loss of viability in HepG2 cells – cell-based, CellTiter-Glo, cherry-picked, cytotoxicity control for Shn3 inhibitor project, dose response (AID 624134); assay type: functional
# [9] = target: T2, Replicative DNA helicase DnaB (Mycobacterium tuberculosis, UniProt P9WMR3); assay: DnaB intein splicing inhibitors, dose response, biochemical, cell-free fluorescence (AID 449749); assay type: functional
# T2 sequence (P9WMR3 whole entry): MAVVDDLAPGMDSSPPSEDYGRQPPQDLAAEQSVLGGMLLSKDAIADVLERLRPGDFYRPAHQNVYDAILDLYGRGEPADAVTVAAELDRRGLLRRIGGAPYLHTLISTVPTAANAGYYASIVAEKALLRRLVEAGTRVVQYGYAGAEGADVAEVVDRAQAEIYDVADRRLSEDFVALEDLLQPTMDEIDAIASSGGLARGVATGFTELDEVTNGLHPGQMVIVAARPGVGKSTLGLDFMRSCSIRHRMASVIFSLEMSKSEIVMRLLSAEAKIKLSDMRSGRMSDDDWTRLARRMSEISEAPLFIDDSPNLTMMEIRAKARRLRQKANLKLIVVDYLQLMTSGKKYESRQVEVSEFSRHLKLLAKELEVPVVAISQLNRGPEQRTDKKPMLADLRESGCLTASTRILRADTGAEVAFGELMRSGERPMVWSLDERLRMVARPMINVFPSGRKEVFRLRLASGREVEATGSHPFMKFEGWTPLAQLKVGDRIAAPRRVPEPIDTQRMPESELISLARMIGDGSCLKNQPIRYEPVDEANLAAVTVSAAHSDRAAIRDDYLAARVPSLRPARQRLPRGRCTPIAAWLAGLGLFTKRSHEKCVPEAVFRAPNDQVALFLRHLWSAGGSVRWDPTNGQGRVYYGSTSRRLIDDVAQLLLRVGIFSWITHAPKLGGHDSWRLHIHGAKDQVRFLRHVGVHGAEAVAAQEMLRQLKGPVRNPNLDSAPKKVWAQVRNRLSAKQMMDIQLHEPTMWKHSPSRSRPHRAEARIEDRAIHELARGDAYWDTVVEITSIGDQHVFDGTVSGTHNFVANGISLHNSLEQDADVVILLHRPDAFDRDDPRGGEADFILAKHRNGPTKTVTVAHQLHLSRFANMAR
# [10] = non-specific 3'UTR reporter inhibition in Clone20-Shn3RL – cell-based, Renilla luciferase, cherry-picked, counter-screen for Shn3 inhibitor project, dose response (AID 624133); assay type: functional
# [11] = Luminescence Cell-Based Dose Retest to Confirm Inhibitors of Cancer Stem Cells. [Related pubchem assays (depositor defined):AID2717, AID2721]; assay type: functional; settings: Homo sapiens
# [12] = target: T3, Microphthalmia-associated transcription factor (Homo sapiens, UniProt O75030); assay: reducers of TRPM1 reporter luminescence, concentration series – cell-based, SK-MEL-5, cherry-picked, set 3, MITF inhibitor project, dose response (AID 493073); assay type: functional;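 further: SK-MEL-5 melanoma cells with luciferase driven by the MITF target TRPM1 promoter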
# T3 sequence (O75030 whole entry): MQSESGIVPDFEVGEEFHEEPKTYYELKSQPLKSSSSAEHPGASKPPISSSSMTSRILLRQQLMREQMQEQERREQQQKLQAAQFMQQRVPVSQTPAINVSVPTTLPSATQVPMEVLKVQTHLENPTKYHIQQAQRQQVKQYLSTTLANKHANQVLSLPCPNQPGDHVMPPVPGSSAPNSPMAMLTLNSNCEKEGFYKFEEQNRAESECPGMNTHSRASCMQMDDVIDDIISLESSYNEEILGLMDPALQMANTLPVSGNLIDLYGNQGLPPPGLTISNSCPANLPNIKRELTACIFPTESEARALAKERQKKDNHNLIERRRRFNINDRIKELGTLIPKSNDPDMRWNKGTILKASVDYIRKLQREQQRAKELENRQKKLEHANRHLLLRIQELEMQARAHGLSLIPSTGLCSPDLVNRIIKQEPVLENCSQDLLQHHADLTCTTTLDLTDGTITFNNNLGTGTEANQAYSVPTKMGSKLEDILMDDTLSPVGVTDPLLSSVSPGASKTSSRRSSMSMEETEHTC
# Paired box protein Pax-8 = Paired box protein Pax-8 (Homo sapiens, UniProt Q06710); assay: PAX8 transcriptional activity inhibition in RMG-I – RMG-I cells, luciferase, cherry-pick, dose response (AID 687027); assay type: functional, cell-based;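 further: luciferase reporter driven by Pax8 target thyroperoxidase promoter measured by SteadyGlo luminescence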
# Sequence of Paired box protein Pax-8 (Q06710 whole entry): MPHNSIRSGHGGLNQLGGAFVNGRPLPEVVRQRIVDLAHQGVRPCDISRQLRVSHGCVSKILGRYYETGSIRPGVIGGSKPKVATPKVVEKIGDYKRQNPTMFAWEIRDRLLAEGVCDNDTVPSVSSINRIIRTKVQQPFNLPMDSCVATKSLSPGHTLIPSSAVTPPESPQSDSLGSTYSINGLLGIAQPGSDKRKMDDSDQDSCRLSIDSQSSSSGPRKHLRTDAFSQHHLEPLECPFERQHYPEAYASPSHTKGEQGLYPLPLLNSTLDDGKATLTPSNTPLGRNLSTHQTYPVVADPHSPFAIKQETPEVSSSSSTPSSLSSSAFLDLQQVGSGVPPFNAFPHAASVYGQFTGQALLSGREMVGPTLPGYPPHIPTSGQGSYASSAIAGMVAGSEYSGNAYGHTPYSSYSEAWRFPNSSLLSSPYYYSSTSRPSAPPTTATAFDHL
# [13] = HEK-293T cell viability reduction – luminescence, B-cell screen hits, cytotoxicity control for BCR NF-kB inhibitor project, dose response (AID 489021); assay type: functional, cell-based;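 further: HEK-293T cells carrying an NF-kB luciferase reporter; cells exposed to compound for about 14 hours before viability readout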
# Protein Wnt-3a = Protein Wnt-3a (Mus musculus, UniProt P27467); assay: antagonism of Wnt3a pathway luciferase reporter – Wnt-LIGHT cells, luminescence, selectivity assay for Gli-SUFU antagonist project, dose response (AID 651570); assay type: functional; settings: read-out: IC50_Mean;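 further: Wnt-LIGHT reporter cells stimulated with conditioned medium from Wnt3a-producing cells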
# Sequence of Protein Wnt-3a (P27467 whole entry, the tested form may be a part): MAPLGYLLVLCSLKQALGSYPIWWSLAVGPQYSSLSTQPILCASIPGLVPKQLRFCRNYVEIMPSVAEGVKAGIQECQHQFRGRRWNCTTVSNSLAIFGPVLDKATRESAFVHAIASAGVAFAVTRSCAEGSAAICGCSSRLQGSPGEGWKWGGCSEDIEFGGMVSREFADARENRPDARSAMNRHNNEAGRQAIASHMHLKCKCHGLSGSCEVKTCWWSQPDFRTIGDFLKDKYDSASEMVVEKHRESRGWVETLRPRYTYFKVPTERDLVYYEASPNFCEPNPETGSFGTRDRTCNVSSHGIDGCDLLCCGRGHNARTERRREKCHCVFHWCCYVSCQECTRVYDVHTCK
# [14] = target: Photoreceptor-specific nuclear receptor (Homo sapiens, UniProt Q9Y5X4); assay type: functional, cell-based;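 further: CHO-S cells with Gal4-NCOR and VP16-NR2E3 two-hybrid luciferase reporter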
# Sequence of Photoreceptor-specific nuclear receptor (Q9Y5X4 whole entry, the tested form may be a part): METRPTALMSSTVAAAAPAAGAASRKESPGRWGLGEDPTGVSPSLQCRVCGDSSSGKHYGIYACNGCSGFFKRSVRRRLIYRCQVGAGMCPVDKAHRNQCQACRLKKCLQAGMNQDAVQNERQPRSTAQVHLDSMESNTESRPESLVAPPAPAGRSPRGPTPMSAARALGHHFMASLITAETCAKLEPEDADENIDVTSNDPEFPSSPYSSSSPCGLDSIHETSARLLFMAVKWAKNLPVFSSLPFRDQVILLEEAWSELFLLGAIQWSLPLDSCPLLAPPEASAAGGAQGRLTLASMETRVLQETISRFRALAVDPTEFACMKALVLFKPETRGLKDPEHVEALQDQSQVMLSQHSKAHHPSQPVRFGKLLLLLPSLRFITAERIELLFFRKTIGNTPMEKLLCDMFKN
# [15] = intracellular Trypanosoma cruzi inhibitors in host cells – cell-based, plate reader, cherry-pick samples, set 3, dose response (AID 651818); assay type: functional;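 further: compounds incubated with infected cells for about four days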
structure (smiles),measurement,setting,value
CCc1ccc(-c2nn(-c3ccccc3)cc2CSC(=N)N)cc1,EC50,[1],11.2 µM (active)
same,CC50,[2],13.7 µM (active)
same,EC50,[3],9.61 µM (active)
same,EC50,BJ,> 133 µM (inactive)
same,AC50,INS1,8.15 µM (active)
COc1ccccc1-c1cc(C(F)(F)F)nc(S(C)(=O)=O)n1,EC50,Protein RecA,10 µM (active)
same,IC50,[4],3.63 µM (active)
same,EC50,cells [5],> 350 µM (not active)
same,AC50,[6],4.06 µM (active)
same,EC50,cells [7],> 350 µM (not active)
same,AC50,[8],37.6 µM (active)
same,AC50,[9],5.35 µM (active)
same,AC50,[10],12.4 µM (active)
same,AC50,[11],5.07 µM (active)
same,AC50,[12],6.81 µM (active)
CCN(CC(=O)Nc1c(F)cccc1F)C(=O)c1cc(S(=O)(=O)N(CC)CC)ccc1N1CCCCC1,AC50,Paired box protein Pax-8,3.02 µM (active)
same,IC50,[13],> 80 µM (inactive)
same,IC50,Protein Wnt-3a,11.4 µM (active)
CC1Cc2cc(S(=O)(=O)N3CCC(C(=O)N4CCN(c5ccccc5F)CC4)CC3)ccc2N1C(=O)C1CC1 (stereo not given),AC50,[6],1.65 µM (active)
same,IC50,Protein Wnt-3a,5.83 µM (active)
same,AC50,[10],4.74 µM (active)
same,AC50,INS1,5.34 µM (active)
O=C(C(=Cc1ccccc1)CN1CCCCC1)c1ccccc1,IC50,[14],3.73 µM (active)
same,AC50,[6],3.18 µM (active)
same,AC50,[8],8.28 µM (active)
same,AC50,[10],5.08 µM (active)
C[C@@H]1CN([C@H](C)CO)C(=O)c2cccc(NC(=O)Nc3ccc(C(F)(F)F)cc3)c2O[C@@H]1CN(C)S(=O)(=O)c1ccc(Cl)cc1,AC50,[15],3.52 µM (active)
Cc1ccc(S(=O)(=O)Nc2cccc3c2O[C@@H](CN(C)Cc2ccc(C(=O)Nc4ccccc4N)cc2)[C@H](C)CN([C@H](C)CO)C3=O)cc1,AC50,[15],3.87 µM (active)
C[C@H](CO)N1C[C@H](C)[C@H](CN(C)Cc2ccc(Cl)c(Cl)c2)Oc2ccc(NC(=O)Nc3ccc(C(F)(F)F)cc3)cc2C1=O,AC50,[15],3.24 µM (active)
COc1ccc(NC(=O)Nc2ccc3c(c2)CC(=O)N([C@H](C)CO)C[C@@H](C)[C@@H](CN(C)Cc2ccc(Cl)c(Cl)c2)O3)cc1,AC50,[15],3.35 µM (active)
